From ChEMBL document CHEMBL3603759, “Ribosome-targeting antibiotics as inhibitors of oncogenic microRNAs biogenesis: Old scaffolds for new perspectives in RNA targeting” (Bioorg Med Chem, 2015)
Activity calls are given as the source filed them. The rule behind the calls is not given here.

Experiments:
[1] = Inhibition of pre-miR-372 (unknown origin) cleavage assessed as reduction of oncogenic microRNAs biogenesis at 200 uM by measuring fluorescence every minute for 5 hrs using 5'-FAM,3'-dabcyl-pre-miRNA beacons by FRET assay in presence of recombinant Dicer
[2] = Inhibition of pre-miR-372 (unknown origin) cleavage assessed as reduction of oncogenic microRNAs biogenesis by measuring fluorescence every minute for 5 hrs using 5'-FAM,3'-dabcyl-pre-miRNA beacons by FRET assay in presence of recombinant Dicer
[3] = Binding affinity to 5'-FAM-pre-miR-372 (unknown origin) assessed as change in total free energy by thermodynamic assay
[4] = Inhibition of pre-miR-372 (unknown origin) cleavage at 1 to 100 uM after 15 mins by RNase footprinting assay in presence of RNase-V1
[5] = Binding affinity to 5'-FAM-pre-miR-373 (unknown origin) after 4 hrs by fluorescence assay; conditions: read-out: Kd
[6] = Binding affinity to 5'-FAM-pre-miR-372 (unknown origin) after 4 hrs by fluorescence assay in presence of 100-fold excess of Escherichia coli tRNA
[7] = Binding affinity to 5'-FAM-pre-miR-17 (unknown origin) after 4 hrs by fluorescence assay; conditions: read-out: Kd
[8] = Inhibition of pre-miR-373 (unknown origin) cleavage assessed as reduction of oncogenic microRNAs biogenesis by measuring fluorescence every minute for 5 hrs using 5'-FAM,3'-dabcyl-pre-miRNA beacons by FRET assay in presence of recombinant Dicer
[9] = Inhibition of pre-miR-372 (unknown origin) cleavage at A42 at 1 to 100 uM after 2 hrs by denaturing gel electrophoresis in presence of recombinant Dicer
[10] = Ratio of Kd for 5'-FAM-pre-miR-372 (unknown origin) in presence of 100-fold excess of Escherichia coli tRNA to Kd for 5'-FAM-pre-miR-372 (unknown origin)
[11] = Ratio of Kd for 5'-FAM-pre-miR-372 (unknown origin) in presence of 100-fold excess of 15-mer DNA to Kd for 5'-FAM-pre-miR-372 (unknown origin)
[12] = Inhibition of pre-miR-21 (unknown origin) cleavage assessed as reduction of oncogenic microRNAs biogenesis by measuring fluorescence every minute for 5 hrs using 5'-FAM,3'-dabcyl-pre-miRNA beacons by FRET assay in presence of recombinant Dicer
[13] = Inhibition of pre-miR-372 (unknown origin) cleavage at U31, G32 and U33 at 1 to 100 uM after 15 mins by RNase footprinting assay in presence of RNase-S1
[14] = Binding affinity to 5'-FAM-pre-miR-372 (unknown origin) after 4 hrs by fluorescence assay; conditions: read-out: Kd
[15] = Binding affinity to 5'-FAM-pre-miR-372 (unknown origin) after 4 hrs by fluorescence assay in presence of 100-fold excess of 15-mer DNA
[16] = Inhibition of pre-miR-372 (unknown origin) cleavage at A24 at 1 to 100 uM after 2 hrs by denaturing gel electrophoresis in presence of recombinant Dicer
[17] = Inhibition of pre-miR-372 (unknown origin) cleavage at U28 at 1 to 100 uM after 2 hrs by denaturing gel electrophoresis in presence of recombinant Dicer
[18] = Inhibition of pre-miR-17 (unknown origin) cleavage assessed as reduction of oncogenic microRNAs biogenesis by measuring fluorescence every minute for 5 hrs using 5'-FAM,3'-dabcyl-pre-miRNA beacons by FRET assay in presence of recombinant Dicer
[19] = Inhibition of pre-miR-17 (unknown origin) cleavage assessed as reduction of oncogenic microRNAs biogenesis at 200 uM by measuring fluorescence every minute for 5 hrs using 5'-FAM,3'-dabcyl-pre-miRNA beacons by FRET assay in presence of recombinant Dicer
[20] = Inhibition of pre-miR-373 (unknown origin) cleavage assessed as reduction of oncogenic microRNAs biogenesis at 200 uM by measuring fluorescence every minute for 5 hrs using 5'-FAM,3'-dabcyl-pre-miRNA beacons by FRET assay in presence of recombinant Dicer
[21] = Inhibition of pre-miR-21 (unknown origin) cleavage assessed as reduction of oncogenic microRNAs biogenesis at 200 uM by measuring fluorescence every minute for 5 hrs using 5'-FAM,3'-dabcyl-pre-miRNA beacons by FRET assay in presence of recombinant Dicer
[22] = Inhibition of pre-miR-372 (unknown origin) cleavage at C27 at 10 to 100 uM after 15 mins by RNase footprinting assay in presence of RNase-V1
[23] = Inhibition of pre-miR-372 (unknown origin) cleavage at A10-A11 at 10 to 100 uM after 15 mins by RNase footprinting assay in presence of RNase-V1
[24] = Inhibition of pre-miR-372 (unknown origin) cleavage at U15-G16-G17-A18 at 10 to 100 uM after 15 mins by RNase footprinting assay in presence of RNase-V1
[25] = Inhibition of pre-miR-372 (unknown origin) cleavage at 10 to 100 uM after 15 mins by RNase footprinting assay in presence of RNase-S1

For `CN(C)c1ccc(O)c2c1C[C@H]1C[C@H]3[C@H](N(C)C)C(O)=C(C(N)=O)C(=O)[C@@]3(O)C(O)=C1C2=O` [MINOCYCLINE], the inhibition [1] was 30%, the IC50 [2] was 397 µM and the Activity [3] was 91%. The inhibition [4] was “inactive”, the Kd [5] was 0.597 µM and the Kd [6] was 1.98 µM. For the same compound, the Kd [7] was 651 nM, the IC50 [8] was 327 µM and the inhibition [9] was “inactive”. For the same compound, the Ratio [10] was 3.2, the Ratio [11] was 2.4 and the IC50 [12] was 369 µM. The inhibition [13] was “Active”, the Kd [14] was 0.612 µM and the Kd [15] was 1.45 µM. The inhibition [16] was “inactive”, the inhibition [17] was “inactive” and the IC50 [18] was 129 µM. For the same compound, the inhibition [19] was 30%, the inhibition [20] was 30% and the inhibition [21] was 30%.

For `NC[C@@H]1O[C@H](O[C@H]2[C@@H](O)[C@H](O[C@@H]3[C@@H](O)[C@H](N)C[C@H](N)[C@H]3O[C@H]3O[C@H](CN)[C@@H](O)[C@H](O)[C@H]3N)O[C@@H]2CO)[C@H](N)[C@@H](O)[C@@H]1O` [FRAMYCETIN], the inhibition [1] was 60%, the IC50 [2] was 88.2 µM and the inhibition [22] was “Active”. The Activity [3] was 70%, the inhibition [23] was “Active” and the Kd [5] was 15.2 µM. The Kd [6] was 11.7 µM, the inhibition [24] was “Active” and the Kd [7] was 1880 nM. The IC50 [8] was 143 µM, the inhibition [9] was “Active” and the Ratio [10] was 1. The inhibition [25] was “inactive”, the Ratio [11] was 1 and the IC50 [12] was 76.7 µM. For the same compound, the Kd [14] was 11.6 µM, the Kd [15] was 11.3 µM and the inhibition [16] was “Active”. For the same compound, the inhibition [17] was “Active”, the IC50 [18] was 93.7 µM and the inhibition [19] was 60%. For the same compound, the inhibition [20] was 60% and the inhibition [21] was 60%.
